Several values for one entry are separate records, joined by “and”; a condition that tells them apart may be missing. Equal entries are not always repeated. Where two headings read alike, the source gives them in different places.
Key:
[1] = molecular target: T1, WT GLIC (Gloeobacter violaceus, UniProt Q7NDN8); test: Whole-cell patch-clamp, protocol with pre-stimulation at low pHo, WT GLIC expressed in tk-ts13 cells; format: cell-based; conditions: for activity on GLIC current (NAM effect): 1 mM with pre-stimulation, pHo 5.0; for reversibility of negative modulation (slow components): after compound wash-out; for current in the presence of di-CBX, % of control: 10 mM at pHo 5.0, mean; for current in the presence of mono-CBX, % of control: 1 mM at pHo 5.0, WT sample of Figure 7, mean; for current in the presence of mono-CBX, % of control (100*I CBX/I CONTROL): 1 mM at pHo 5.0, WT sample of Figures 4 and 5, mean
T1 construct: expressed in transfected cells; host or cells: tk-ts13 cells, GLIC DNA in pMT3 vector
T1 sequence (Q7NDN8 44-359): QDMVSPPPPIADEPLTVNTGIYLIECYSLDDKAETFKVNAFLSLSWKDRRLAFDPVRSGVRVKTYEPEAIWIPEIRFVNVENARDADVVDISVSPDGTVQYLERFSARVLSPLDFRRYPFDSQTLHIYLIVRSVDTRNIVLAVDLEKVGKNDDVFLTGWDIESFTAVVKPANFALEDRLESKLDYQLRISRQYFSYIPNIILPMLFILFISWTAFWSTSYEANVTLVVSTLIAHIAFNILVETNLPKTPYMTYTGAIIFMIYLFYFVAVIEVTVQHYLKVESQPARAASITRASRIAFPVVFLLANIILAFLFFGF
Protocol: We give here the main points and some differences.
All solutions were prepared from the acid forms of the buffers/acido‐basic compounds (BAPTA, HEPES, MES, CBX, etc.). Stock 100 mmol/L (mM) mono‐CBX water solutions were prepared directly at pH 5 (NaOH/HCl), aliquoted and kept at −20°C.
Fit of concentration‐effect curves. For proton activation curves, the peak value (Ipk[pHo]; inward current value at maximal absolute value) within 30 s was considered (y), and a plot against H^+ activity value (x) was fitted with a 3‐parameter Hill equation: y=ymax*1/1+EC50nH/x^nH , giving I max, EC50, and pH50 = −log(EC50). For potentiation/inhibition, data for [percent of control current] in the presence of the compound (y = 100*I CBX/I CONTROL) to [compound concentration value] […] For most compounds are presented: a fit of the mean of data (Graphs), and the mean ± standard deviation (SD) of data from individual cells (values in text).

[2] = molecular target: T1, WT GLIC; test: Whole-cell patch-clamp, direct protocol (pHo jump and compound applied simultaneously), WT GLIC in tk-ts13 cells; format: cell-based; conditions: 1 mM at pHo 5.0, direct protocol, individual cells; for ratio of peak current values in the presence and in the absence of compound (Ipk[CBX@5.0]/Ipk[pHo 5.0]): first CBX application; for current decay (h) time constant: m^4 h fit
Excerpt: A direct protocol, where a pHo‐jump (from control pHo 7.5) and compound addition are applied simultaneously, was first used to examine the influence of saturated, short‐chain mono‐CBX compounds on low pHo‐induced GLIC current (Figure 1a).

[3] = molecular target: GLIC AA‐N152A (Gloeobacter violaceus, UniProt Q7NDN8, D128A/D130A/N194A); test: Whole-cell patch-clamp with pre-stimulation, GLIC AA-N152A; conditions: CROTON 1 mM at pHo 5.0, single exponential fit
Protocol: (§3) Nuclear injection of DNA was done on the day of reception of oocytes. […] Transfection was done within 24 h after cell seeding, using the DNA‐calcium phosphate co‐precipitation method. GFP‐positive cells were used for electrophysiology 1–2 days after transfection (tk‐ts13 cells), or 1–3 days after nuclear injection (oocytes). A mixture of DNAs coding for GLIC and GFP in separate pMT3 vectors was used, with amounts of [2 + 0.2] μg per 35 mm dish for transfections, or [0.04 + 0.02] g/L in water for injections.
(§4) The intracellular pipette solution was composed of (in mM): CsCl 150, MgCl2 1, HEPES 10, BAPTA 10, CsOH to pH 7.3. […] Lower pH values were reached by adding to this solution HCl 2 M in water (and more pH 7.5 solution to return pH up if necessary). […] A 3 M KCl, 5 g/L agar bridge was used to connect the reference electrode to the dish solution. […] Electric current flowing through the membrane from extracellular to intracellular face (inward current) is counted negative, and represented downwards in the figures. […]
(§5) Positive/negative modulation was evaluated as current in the presence of the compound, in percent of the control GLIC current value measured immediately before compound application (with a correction for GLIC current decay only for small inhibitions). […]

[4] = test system: GLIC [AA + CBX‐pocket] triple mutants; test: Whole-cell patch-clamp with pre-stimulation, [AA + CBX-pocket] triple mutants; conditions: 1 mM at pHo 5.0, compared to AA double mutant
Protocol: as §3, §4, §5

[5] = molecular target: T2, GLIC R133A (Gloeobacter violaceus, UniProt Q7NDN8, R175A); test: Whole-cell patch-clamp, direct protocol, GLIC R133A
[6] = molecular target: T3, GLIC E181A (Gloeobacter violaceus, UniProt Q7NDN8, E223A); format: cell-based; conditions: 1 mM at pHo 5.0, versus WT GLIC
T3 construct: expressed in transfected cells; host or cells: tk-ts13 cells, pMT3 vector
Protocol: (§1) ACET (Figure 4) and the 4‐carbon compounds BUTYR and CROTON (Figure 5) were tested on the CBX‐pockets single mutants, at 1 mM with pre‐stimulation at pHo 5.0.

[7] = molecular target: T2, GLIC R133A; format: cell-based; set-up: expressed in transfected cells; host or cells: tk-ts13 cells, pMT3 vector; conditions: 1 mM at pHo 5.0, mean
Protocol: as §1

[8] = molecular target: T4, GLIC R105A (Gloeobacter violaceus, UniProt Q7NDN8, R147A); format: cell-based; conditions: 1 mM at pHo 5.0, mean
T4 construct: expressed in transfected cells; host or cells: tk-ts13 cells, pMT3 vector
Protocol: as §1

[9] = molecular target: T5, GLIC E104Q (Gloeobacter violaceus, UniProt Q7NDN8, E146Q); format: cell-based; conditions: 1 mM at pHo 5.0, mean
T5 construct: expressed in transfected cells; host or cells: tk-ts13 cells, pMT3 vector
Protocol: as §1

[10] = molecular target: T6, GLIC Y102A (Gloeobacter violaceus, UniProt Q7NDN8, Y144A); format: cell-based; conditions: 1 mM at pHo 5.0, mean
T6 construct: expressed in transfected cells; host or cells: tk-ts13 cells, pMT3 vector
Protocol: as §1

[11] = molecular target: T7, GLIC R77A (Gloeobacter violaceus, UniProt Q7NDN8, R119A); format: cell-based; conditions: 1 mM at pHo 5.0, mean
T7 construct: expressed in transfected cells; host or cells: tk-ts13 cells, pMT3 vector
Protocol: as §1

[12] = molecular target: T8, GLIC E177A (Gloeobacter violaceus, UniProt Q7NDN8, E219A); format: cell-based; conditions: 1 mM at pHo 5.0, mean
T8 construct: expressed in transfected cells; host or cells: tk-ts13 cells, pMT3 vector
Protocol: as §1

[13] = molecular target: T9, GLIC D86A‐D88A (Gloeobacter violaceus, UniProt Q7NDN8, D128A/D130A); format: cell-based; conditions: 1 mM at pHo 5.0, Figure 7 sample, mean
T9 construct: expressed in transfected cells; host or cells: tk-ts13 cells, pMT3 vector
Excerpt: (§2) Compound modulation of the D86A‐D88A pre‐β5 variant (AA), N152A mutant and WT GLIC, was investigated in the protocol with pre‐stimulation at pHo 5.0 (Figure 7).

[14] = molecular target: T10, GLIC N152A (Gloeobacter violaceus, UniProt Q7NDN8, N194A); format: cell-based; conditions: 1 mM at pHo 5.0, mean
T10 construct: expressed in transfected cells; host or cells: tk-ts13 cells, pMT3 vector
Excerpt: as §2

[15] = 5 or 10 mM, pre-stimulation at pHo 5.0, 2–5 cells each
[16] = pHo 5.5, mean ± SD, read-out: IC50 (from individual cells)
[17] = SUCCIN 10 mM at pHo 5.0, without ACET, after ACET 1 mM 50 s, one cell
[18] = pHo 5.0, mean ± SD, read-out: IC50 (from individual cells)

T3 sequence (Q7NDN8 44-359 E223A): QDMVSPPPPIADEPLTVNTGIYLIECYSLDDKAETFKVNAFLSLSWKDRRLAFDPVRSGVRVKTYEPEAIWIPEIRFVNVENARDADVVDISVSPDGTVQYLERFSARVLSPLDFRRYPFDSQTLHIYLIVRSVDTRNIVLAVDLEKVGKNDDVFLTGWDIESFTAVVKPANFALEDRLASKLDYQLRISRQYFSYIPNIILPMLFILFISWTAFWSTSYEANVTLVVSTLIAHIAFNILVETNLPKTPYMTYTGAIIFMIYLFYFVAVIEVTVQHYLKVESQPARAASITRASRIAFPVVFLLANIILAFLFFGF
T2 sequence (Q7NDN8 44-359 R175A): as the sequence (Q7NDN8 44-359 E223A) above, with R132A, A180E counted along it
T7 sequence (Q7NDN8 44-359 R119A): as the sequence (Q7NDN8 44-359 E223A) above, with R76A, A180E counted along it
T6 sequence (Q7NDN8 44-359 Y144A): as the sequence (Q7NDN8 44-359 E223A) above, with Y101A, A180E counted along it
T5 sequence (Q7NDN8 44-359 E146Q): as the sequence (Q7NDN8 44-359 E223A) above, with E103Q, A180E counted along it
T4 sequence (Q7NDN8 44-359 R147A): as the sequence (Q7NDN8 44-359 E223A) above, with R104A, A180E counted along it
T8 sequence (Q7NDN8 44-359 E219A): as the sequence (Q7NDN8 44-359 E223A) above, with E176A, A180E counted along it
T9 sequence (Q7NDN8 44-359 D128A/D130A): as the sequence (Q7NDN8 44-359 E223A) above, with D85A, D87A, A180E counted along it
T10 sequence (Q7NDN8 44-359 N194A): as the sequence (Q7NDN8 44-359 E223A) above, with N151A, A180E counted along it
Chain of GLIC AA‐N152A (Q7NDN8 44-359 D128A/D130A/N194A): as the sequence (Q7NDN8 44-359 E223A) above, with D85A, D87A, N151A, A180E counted along it

## NCC(=O)O [glycine]
[1]; [15]
  effect on GLIC current: no effect

## CCC(=O)O [PROPION, Propanoic acid]
[2]
  ratio of peak current values in the presence and in the absence of compound (Ipk[CBX@5.0]/Ipk[pHo 5.0]): 0.380
  current decay (h) time constant: 1.47 s
[1]
  activity on GLIC current (NAM effect): active
  reversibility of negative modulation (slow components): 3 to 10 min
[1]; pHo 5.5, mean ± SD
  slope parameter nH (from individual cells): 1.1
[1]; [16]
  IC50: 204 µM

## CCCCC(=O)O [VALER, Pentanoic acid]
[1]; IC50 (from individual cells), pHo 5.0, mean ± SD
  IC50: 289 µM

## O=C(O)CCC(=O)O [SUCCIN, Butanedioic acid]
[1]
  current in the presence of di-CBX, % of control: 142 % of control
[1]; [17]
  GLIC current with SUCCIN after ACET plateau, % of control current recorded immediately before ACET: 143 % of control
  GLIC current with SUCCIN after ACET plateau, % of current recorded in the presence of ACET: 2170 % of ACET current
[1]; SUCCIN 10 mM co-applied with ACET 1 mM, pHo 5.0, after 90, 120, 180 s of ACET, individual cells
  peak SUCCIN current (co-application with ACET), % of control current recorded immediately before ACET: 132 % of control and 28 % of control and 44 % of control
[1]; SUCCIN 10 mM co-applied with ACET 1 mM, pHo 5.0, individual cells
  peak SUCCIN current (co-application with ACET), % of ACET current: 753 % of ACET current and 505 % of ACET current and 392 % of ACET current

## C/C=C/C(=O)O [CROTON, Butenoic acid]
[3]
  decay constant tau of PAM ratio versus control current amplitude: 800 nA
[4]
  CROTON PAM effect after adding a binding pocket mutation to AA (excluding AA‐N152A): fully abolished
[2]
  ratio of peak current values in the presence and in the absence of compound (Ipk[CBX@5.0]/Ipk[pHo 5.0]): 0.228 and 0.244
  current decay (h) time constant: 0.695 s and 0.583 s
[1]
  current in the presence of mono-CBX, % of control: 13.6 % of control
  current in the presence of mono-CBX, % of control (100*I CBX/I CONTROL): 11.9 % of control
[1]; [18]
  IC50: 191 µM
[5]
  peak current inhibition: almost fully abolished
[6]
  impact of the E181A substitution on the NAM effect: no impact

## phosphate
[1]; 1 and 10 mM at pH 5.0, extracellular solution without CaCl2, n = 4 cells
  effect on GLIC activity: no effect

## O=C(O)CC(O)(CC(=O)O)C(=O)O [citrate]
[1]; citrate used as buffer, conditions not given
  effect on GLIC current: no effect

## C[C@H](N)C(=O)O [(L)‐alanine]
[1]; [15]
  effect on GLIC current: no effect

## O=C(O)/C=C/C(=O)O [FUMAR, (E)‐but‐2‐enedioic acid]
[1]
  current in the presence of di-CBX, % of control: 194 % of control

## CC(=O)C(=O)O [pyruvate]
[1]; [15]
  effect on GLIC current: no effect

## CCCC(=O)O [BUTYR, Butanoic acid]
[2]
  ratio of peak current values in the presence and in the absence of compound (Ipk[CBX@5.0]/Ipk[pHo 5.0]): 0.257 and 0.332
  current decay (h) time constant: 0.541 s and 0.304 s
[1]
  current in the presence of mono-CBX, % of control: 13.6 % of control
  current in the presence of mono-CBX, % of control (100*I CBX/I CONTROL): 10.3 % of control
[1]; [18]
  IC50: 219 µM
[1]; pHo 5.5, mean ± SD
  slope parameter nH (from individual cells): 1.5
[1]; [16]
  IC50: 150 µM
[5]
  peak current inhibition: almost fully abolished
[6]
  impact of the E181A substitution on the NAM effect: no impact

## NCCCC(=O)O [GABA, γ‐amino butyrate]
[1]; [15]
  effect on GLIC current: no effect

## O=C(O)/C=C/c1ccc(O)c(O)c1 [CAFFE, caffeic acid]
[1]; 0.1 mM at pHo 5.0, mean
  current in the presence of CAFFE, % of control: 17.4 % of control

## NCCC(=O)O [β‐alanine]
[1]; [15]
  effect on GLIC current: no effect

## CC(=O)O [ACET, Ethanoic acid]
[7]
  current in the presence of mono-CBX, % of control: 22.7 % of control
[2]
  ratio of peak current values in the presence and in the absence of compound (Ipk[CBX@5.0]/Ipk[pHo 5.0]): 0.400 and 0.424 and 0.533 and 0.575
  current decay (h) time constant: 2.90 s and 3.13 s and 3.33 s and 5.62 s
[1]
  current in the presence of mono-CBX, % of control: 12.2 % of control
  current in the presence of mono-CBX, % of control (100*I CBX/I CONTROL): 12.2 % of control
  activity on GLIC current (NAM effect): active
  reversibility of negative modulation (slow components): 3 to 10 min
[1]; ACET 1 mM at pHo 5.0, 50-180 s application, individual cells
  GLIC current in the presence of ACET, % of control: 17 % of control and 6.6 % of control and 5.5 % of control and 17.2 % of control and 11.3 % of control
[1]; pHo 5.5, 10 cells
  slope parameter (fit of the mean value): 1.6
[1]; pHo 5.5, 10 cells, read-out: IC50 (sigmoid fit of the mean value)
  IC50: 136 µM
[1]; [16]
  IC50: 128 µM
[8]
  current in the presence of mono-CBX, % of control: 17.1 % of control
[9]
  current in the presence of mono-CBX, % of control: 47.6 % of control
[6]
  impact of the E181A substitution on the NAM effect: no impact
[10]
  current in the presence of mono-CBX, % of control: 16.1 % of control
[11]
  current in the presence of mono-CBX, % of control: 71.4 % of control
[12]
  current in the presence of mono-CBX, % of control: 14.9 % of control
[13]
  current in the presence of mono-CBX, % of control: 14.6 % of control
[14]
  current in the presence of mono-CBX, % of control: 9.7 % of control

## CC(O)C(=O)O (stereo not drawn) [DL‐lactate]
[1]; [15]
  effect on GLIC current: no effect
